# From ChEMBL document CHEMBL3774320, “SAR exploration at the C-3 position of tetrahydro-β-carboline sstr3 antagonists” (Bioorg Med Chem Lett, 2016)
# Legend:
# [1] = target: T1, Somatostatin receptor type 3 (Homo sapiens, UniProt P32745)
# Description: Binding affinity to human somatostatin receptor type 3
# [2] = target: T1, Somatostatin receptor type 3; remark: listed apart in the source
# Description: Antagonist activity at human somatostatin receptor type 3 assessed as inhibition of cAMP levels
# [3] = target: Voltage-gated inwardly rectifying potassium channel KCNH2 (Homo sapiens, UniProt Q12809); test: Binding affinity to human ERG
# Sequence of Voltage-gated inwardly rectifying potassium channel KCNH2 (Q12809 whole entry): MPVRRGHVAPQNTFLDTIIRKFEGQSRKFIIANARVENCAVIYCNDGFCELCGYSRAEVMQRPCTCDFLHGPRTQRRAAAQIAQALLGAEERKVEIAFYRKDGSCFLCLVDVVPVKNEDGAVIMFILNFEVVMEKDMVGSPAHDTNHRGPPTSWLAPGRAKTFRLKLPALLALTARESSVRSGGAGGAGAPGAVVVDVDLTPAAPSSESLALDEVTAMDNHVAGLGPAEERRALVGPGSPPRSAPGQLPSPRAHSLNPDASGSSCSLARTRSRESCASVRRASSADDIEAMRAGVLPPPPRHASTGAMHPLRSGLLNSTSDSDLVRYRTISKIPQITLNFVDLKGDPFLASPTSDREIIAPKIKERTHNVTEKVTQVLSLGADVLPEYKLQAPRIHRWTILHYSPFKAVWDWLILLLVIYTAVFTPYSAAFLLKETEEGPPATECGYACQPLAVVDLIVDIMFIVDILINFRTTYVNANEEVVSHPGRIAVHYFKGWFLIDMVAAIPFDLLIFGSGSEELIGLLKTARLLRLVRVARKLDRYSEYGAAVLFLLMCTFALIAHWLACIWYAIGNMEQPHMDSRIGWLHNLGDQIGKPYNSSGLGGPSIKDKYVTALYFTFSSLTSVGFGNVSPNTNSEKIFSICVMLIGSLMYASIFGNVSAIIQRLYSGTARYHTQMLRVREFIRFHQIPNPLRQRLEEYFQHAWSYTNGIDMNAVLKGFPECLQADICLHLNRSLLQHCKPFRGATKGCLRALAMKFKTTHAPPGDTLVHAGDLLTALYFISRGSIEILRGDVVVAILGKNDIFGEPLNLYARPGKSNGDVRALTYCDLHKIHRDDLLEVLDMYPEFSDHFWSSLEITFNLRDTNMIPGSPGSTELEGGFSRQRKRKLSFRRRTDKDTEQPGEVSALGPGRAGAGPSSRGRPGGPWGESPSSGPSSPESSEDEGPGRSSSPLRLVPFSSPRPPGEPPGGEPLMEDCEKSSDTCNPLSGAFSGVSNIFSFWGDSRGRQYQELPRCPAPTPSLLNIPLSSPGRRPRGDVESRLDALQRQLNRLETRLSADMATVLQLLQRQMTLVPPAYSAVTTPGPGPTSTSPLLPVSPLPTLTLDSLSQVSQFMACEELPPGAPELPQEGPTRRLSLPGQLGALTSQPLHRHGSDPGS
# T1 sequence (P32745 whole entry): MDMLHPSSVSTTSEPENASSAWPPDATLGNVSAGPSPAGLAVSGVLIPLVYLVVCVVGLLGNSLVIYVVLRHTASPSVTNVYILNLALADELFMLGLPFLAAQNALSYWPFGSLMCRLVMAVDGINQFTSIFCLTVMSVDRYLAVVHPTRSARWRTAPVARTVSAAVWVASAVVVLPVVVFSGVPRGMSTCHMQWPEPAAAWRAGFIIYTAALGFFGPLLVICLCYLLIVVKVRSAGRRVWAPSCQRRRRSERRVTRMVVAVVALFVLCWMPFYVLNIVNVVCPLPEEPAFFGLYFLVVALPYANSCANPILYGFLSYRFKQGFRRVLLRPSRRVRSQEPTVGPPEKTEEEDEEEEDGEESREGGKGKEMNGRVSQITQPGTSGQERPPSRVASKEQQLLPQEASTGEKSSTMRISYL
IC50 [1],EC50 [2],SMILES,IC50 [3]
> 1.33 µM,–,O=C(O)c1cccc(-c2c[nH]c([C@H]3Cc4c([nH]c5ccccc45)[C@@H](C4CCOCC4)N3)n2)c1,–
0.018 µM,0.03 µM,Fc1ccccc1-c1c[nH]c([C@H]2Cc3c([nH]c4ccccc34)[C@@H](C3CCOCC3)N2)n1,–
> 1.33 µM,> 1 µM,CS(=O)(=O)c1ccc(-c2c[nH]c([C@H]3Cc4c([nH]c5ccccc45)[C@@H](C4CCOCC4)N3)n2)cc1,–
0.015 µM,0.048 µM,c1ccc2c3c([nH]c2c1)[C@@H](C1CCOCC1)N[C@@H](c1nc(-c2ccsc2)c[nH]1)C3,–
0.0021 µM,0.0048 µM,COc1cccc(-c2c[nH]c([C@H]3Cc4c([nH]c5ccccc45)[C@](c4cnn(C)c4)(c4noc(C)n4)N3)n2)n1,–
1.33 µM,–,Cn1cc(-c2ccc(F)cc2)nc1[C@H]1Cc2c([nH]c3ccccc23)[C@H](C2CCOCC2)N1,–
0.033 µM,0.113 µM,Cc1ccc(-c2c[nH]c([C@H]3Cc4c([nH]c5ccccc45)[C@@H](C4CCOCC4)N3)n2)cc1,–
0.024 µM,0.077 µM,Cc1nc([C@@]2(c3cnn(C)c3)N[C@@H](c3nc(-c4ccccn4)c[nH]3)Cc3c2[nH]c2ccccc32)no1,–
0.0082 µM,0.088 µM,Fc1cccc(-c2c[nH]c([C@H]3Cc4c([nH]c5ccccc45)[C@@H](C4CCOCC4)N3)n2)c1,–
0.193 µM,–,c1cncc(-c2c[nH]c([C@H]3Cc4c([nH]c5ccccc45)[C@@H](C4CCOCC4)N3)n2)c1,–
0.141 µM,–,N#Cc1ccc(-c2c[nH]c([C@H]3Cc4c([nH]c5ccccc45)[C@@H](C4CCOCC4)N3)n2)cc1,–
0.0081 µM,0.05 µM,Clc1ccc(-c2c[nH]c([C@H]3Cc4c([nH]c5ccccc45)[C@@H](C4CCOCC4)N3)n2)cc1,–
0.163 µM,0.432 µM,c1ccc2c3c([nH]c2c1)[C@@H](C1CCOCC1)N[C@@H](c1nc(-c2ccncc2)c[nH]1)C3,–
0.074 µM,0.199 µM,Clc1ccc(-c2c[nH]c([C@H]3Cc4c([nH]c5ccccc45)[C@@H](C4CCOCC4)N3)n2)nc1,–
> 1.33 µM,> 1 µM,c1cnc(-c2c[nH]c([C@H]3Cc4c([nH]c5ccccc45)[C@@H](C4CCOCC4)N3)n2)nc1,–
0.786 µM,> 1 µM,c1ccc2c3c([nH]c2c1)[C@@H](C1CCOCC1)N[C@@H](c1nc(-c2cscn2)c[nH]1)C3,–
0.782 µM,4.5 µM,c1ccc2c3c([nH]c2c1)[C@@H](C1CCOCC1)N[C@@H](c1nc(-c2cnccn2)c[nH]1)C3,–
0.0046 µM,0.017 µM,COc1cccc(-c2c[nH]c([C@H]3Cc4c([nH]c5ccccc45)[C@@H](C4CCOCC4)N3)n2)c1,–
0.487 µM,0.405 µM,c1ccc(-c2nc([C@H]3Cc4c([nH]c5ccccc45)[C@@H](C4CCOCC4)N3)c[nH]2)cc1,–
0.0014 µM,0.00046 µM,Cc1nc([C@]2(c3cnn(C)c3)N[C@@H](c3nc(-c4ccccc4)c[nH]3)Cc3c2[nH]c2ccccc32)no1,–
0.023 µM,0.037 µM,Fc1ccc(-c2c[nH]c([C@H]3Cc4c([nH]c5ccccc45)[C@@H](C4CCOCC4)N3)n2)c(F)c1,0.634 µM
0.034 µM,0.138 µM,Cc1csc(-c2c[nH]c([C@H]3Cc4c([nH]c5ccccc45)[C@@H](C4CCOCC4)N3)n2)c1,–
0.026 µM,0.15 µM,Cn1c2c(c3ccccc31)C[C@H](c1nc(-c3ccc(F)cc3)c[nH]1)N[C@@H]2C1CCOCC1,–
0.0029 µM,0.017 µM,COc1cccc(-c2c[nH]c([C@H]3Cc4c([nH]c5ccccc45)[C@@](c4cnn(C)c4)(c4noc(C)n4)N3)n2)n1,–

IC50 [1],EC50 [2],SMILES,IC50 [3]
0.037 µM,0.435 µM,N#Cc1cccc(-c2c[nH]c([C@H]3Cc4c([nH]c5ccccc45)[C@@H](C4CCOCC4)N3)n2)c1,–
0.127 µM,0.181 µM,COc1ccc(-c2c[nH]c([C@H]3Cc4c([nH]c5ccccc45)[C@@H](C4CCOCC4)N3)n2)cc1,–
0.01 µM,0.011 µM,c1ccc2c3c([nH]c2c1)[C@@H](C1CCOCC1)N[C@@H](c1nc(-c2csc4ccccc24)c[nH]1)C3,–
0.639 µM,> 1 µM,FC(F)(F)Oc1ccc(-c2c[nH]c([C@H]3Cc4c([nH]c5ccccc45)[C@@H](C4CCOCC4)N3)n2)cc1,–
0.008 µM,0.0031 µM,COc1cccc(-c2c[nH]c([C@H]3Cc4c([nH]c5ccccc45)[C@@H](C4CCOCC4)N3)n2)n1,1.02 µM
0.034 µM,0.026 µM,Oc1ccc(-c2c[nH]c([C@H]3Cc4c([nH]c5ccccc45)[C@@H](C4CCOCC4)N3)n2)cc1,–
> 1.33 µM,> 1 µM,c1ccc2c3c([nH]c2c1)[C@@H](C1CCOCC1)N[C@@H](c1nc(-c2nccs2)c[nH]1)C3,–
0.391 µM,> 1 µM,c1ccc(-c2ccc(-c3c[nH]c([C@H]4Cc5c([nH]c6ccccc56)[C@@H](C5CCOCC5)N4)n3)cc2)cc1,–
0.109 µM,0.196 µM,c1ccc(-c2c[nH]c([C@H]3Cc4c([nH]c5ccccc45)[C@@H](C4CCOCC4)N3)n2)nc1,–
0.017 µM,0.206 µM,Clc1ccc(-c2c[nH]c([C@H]3Cc4c([nH]c5ccccc45)[C@@H](C4CCOCC4)N3)n2)s1,–
0.043 µM,> 1 µM,FC(F)(F)Oc1cccc(-c2c[nH]c([C@H]3Cc4c([nH]c5ccccc45)[C@@H](C4CCOCC4)N3)n2)c1,0.058 µM
0.0018 µM,0.0064 µM,Fc1ccc(-c2c[nH]c([C@H]3Cc4c([nH]c5ccccc45)[C@@H](C4CCOCC4)N3)n2)cc1F,–
0.23 µM,0.691 µM,c1ccc2c3c([nH]c2c1)C(C1CCOCC1)NC(c1nc(C2CCCCC2)c[nH]1)C3 (centres undefined),–
0.282 µM,0.201 µM,Fc1ccc(-c2n[nH]c([C@H]3Cc4c([nH]c5ccccc45)[C@@H](C4CCOCC4)N3)n2)cc1,–
0.0026 µM,0.0033 µM,Cc1nc([C@@]2(c3cnn(C)c3)N[C@@H](c3nc(-c4ccccc4)c[nH]3)Cc3c2[nH]c2ccccc32)no1,–
0.133 µM,–,c1ccc2c(-c3c[nH]c([C@H]4Cc5c([nH]c6ccccc56)[C@@H](C5CCOCC5)N4)n3)c[nH]c2c1,–
0.039 µM,0.067 µM,Fc1ccc(-c2c[nH]c([C@H]3Cc4c([nH]c5ccccc45)[C@@H](C4CCOCC4)N3)n2)nc1,–
0.0094 µM,0.0055 µM,Cc1nc([C@]2(c3cnn(C)c3)N[C@@H](c3nc(-c4ccccn4)c[nH]3)Cc3c2[nH]c2ccccc32)no1,–
0.026 µM,1.52 µM,FC(F)(F)c1ccc(-c2c[nH]c([C@H]3Cc4c([nH]c5ccccc45)[C@@H](C4CCOCC4)N3)n2)cc1,–
0.573 µM,> 1 µM,Cc1[nH]c([C@H]2Cc3c([nH]c4ccccc34)[C@@H](C3CCOCC3)N2)nc1-c1ccccc1,–
0.28 µM,0.938 µM,Fc1ccc(-c2cc([C@H]3Cc4c([nH]c5ccccc45)[C@@H](C4CCOCC4)N3)[nH]n2)cc1,–
0.225 µM,> 1 µM,Cn1cc(-c2ccc(F)cc2)nc1[C@H]1Cc2c([nH]c3ccccc23)[C@@H](C2CCOCC2)N1,–
0.603 µM,–,CC1(c2nc(-c3ccccc3)c[nH]2)Cc2c([nH]c3ccccc23)C(C2CCOCC2)N1 (stereo in doubt; 6b),2.95 µM
> 1.33 µM,–,CC1(c2nc(-c3ccccc3)c[nH]2)Cc2c([nH]c3ccccc23)C(C2CCOCC2)N1 (stereo in doubt; 6c),1.63 µM
